Where two headings read alike, the source gives them in different places.
Tests used:
in vitro [1] = settings: human, microsomes, pH 7.47
in vitro [2] = settings: mouse, liver microsomes, pH 7.47
in vitro [3] = settings: rat, microsomes, pH 7.47
[4] = MDCK cell permeability test; settings: dog, MDCK, 90 min
MDCK cells = test: MDCK cell permeability test; settings: for Efllux ratio: Papp(B→A)/Papp(A→B)
P-gp = test: MDCK cell permeability test; settings: dog, MDCK
tubulin = test: Tubulin polymerization experiment (Cytoskeleton Tubulin Polymerization Assay Kit); format: biochemical
Procedure: The tubulin polymerization experiment is carried out according to the specifications of Tubulin Polymerization Assay Kit of Cytoskeleton Corporation.

[5] = rat, microsomes, 1 µM, pH 7.47
in vitro [6] = settings: monkey, microsomes, pH 7.47

half-life at 1 µM (in vitro [1]): 44.7 min
microsomal CLint at 1 µM (in vitro [1]): 31 µL/min/mg
half-life at 1 µM (in vitro [2]): 55.3 min
microsomal CLint at 1 µM (in vitro [2]): 25 µL/min/mg
half-life at 1 µM (in vitro [3]): 56.8 min
microsomal CLint at 1 µM (in vitro [3]): 24.4 µL/min/mg
Papp A→B at 90 min ([4]; Apparent permeability coefficient A→B, 1st line of the compound (condition not given)): 0.6 ×10⁻⁶ cm/s
Papp A→B at 90 min ([4]; Apparent permeability coefficient A→B, 2nd line of the compound (condition not given)): 16 ×10⁻⁶ cm/s
Papp A→B at 90 min, 10 µM ([4]; Apparent permeability coefficient A→B, 3rd line of the compound (condition not given)): 18 ×10⁻⁶ cm/s
Papp B→A at 90 min ([4]; Apparent permeability coefficient B→A, 1st line of the compound (condition not given)): 0.8 ×10⁻⁶ cm/s
Papp B→A at 90 min ([4]; Apparent permeability coefficient B→A, 2nd line of the compound (condition not given)): 18.9 ×10⁻⁶ cm/s
Papp B→A at 90 min, 10 µM ([4]; Apparent permeability coefficient B→A, 3rd line of the compound (condition not given)): 19.6 ×10⁻⁶ cm/s
recovery at 90 min ([4]; Recovery rate A→B, 2nd line of the compound (condition not given)): 69.4%
recovery at 90 min, 10 µM ([4]; Recovery rate A→B, 3rd line of the compound (condition not given)): 62.3%
recovery at 90 min ([4]; Recovery rate A→B, 1st line of the compound (condition not given; method: without / with 10 μM cyclosporine A)): 93.8%
recovery at 90 min ([4]; Recovery rate B→A, 1st line of the compound (condition not given)): 102%
recovery at 90 min ([4]; Recovery rate B→A, 2nd line of the compound (condition not given)): 85.4%
recovery at 90 min, 10 µM ([4]; Recovery rate B→A, 3rd line of the compound (condition not given)): 84.6%
PGP substrate judgment (MDCK cells; MDCK cells): is not the PGP substrate and No
Permeability Judgment (MDCK cells; MDCK cells): moderate permeability
Efllux ratio (MDCK cells; 2nd line of the compound (condition not given)): 1.2
Efllux ratio (MDCK cells; 3rd line of the compound (condition not given)): 1.1
efflux ratio at 90 min (P-gp): 1.2
IC50 (tubulin; read-out: tubulin polymerization inhibiting IC50): 4.62 µM
Remainder ([5]; 0 h): 100.00%
Remainder ([5]; 10 min): 87.70%
Remainder ([5]; 0.5 h): 68.13%
Remainder ([5]; 1.5 h): 33.19%
half-life at 1 µM (in vitro [6]): 21.6 min
microsomal CLint at 1 µM (in vitro [6]): 64.2 µL/min/mg
Structure (SMILES): CCOc1cccc(Nc2nn(C)c3c2Cc2cc(OCC)c(OCC(N)=O)cc2-3)c1 [LL-01]
inhibition of tubulin polymerization (in words) (tubulin; FIGS. 1 and 2): able to inhibit tubulin polymerization
